Source: patent US20100035867A1 (priority 2006, published 2010)

What was measured:
guanylyl cyclase type C = guanylyl cyclase type C (Homo sapiens, UniProt P25092); conditions: literature comparator; read-out: potency (IC50); cited from earlier work
[1] = biological target: guanylyl cyclase type C (GC-C) (Homo sapiens, UniProt P25092); assay: STa-induced activation of GC-C in T84 cells (cyclic GMP accumulation, ELISA); assay type: cell-based; parameters: endogenous in cells; host or cells: T84 cells
Chain of guanylyl cyclase type C (GC-C) (P25092 24-1073): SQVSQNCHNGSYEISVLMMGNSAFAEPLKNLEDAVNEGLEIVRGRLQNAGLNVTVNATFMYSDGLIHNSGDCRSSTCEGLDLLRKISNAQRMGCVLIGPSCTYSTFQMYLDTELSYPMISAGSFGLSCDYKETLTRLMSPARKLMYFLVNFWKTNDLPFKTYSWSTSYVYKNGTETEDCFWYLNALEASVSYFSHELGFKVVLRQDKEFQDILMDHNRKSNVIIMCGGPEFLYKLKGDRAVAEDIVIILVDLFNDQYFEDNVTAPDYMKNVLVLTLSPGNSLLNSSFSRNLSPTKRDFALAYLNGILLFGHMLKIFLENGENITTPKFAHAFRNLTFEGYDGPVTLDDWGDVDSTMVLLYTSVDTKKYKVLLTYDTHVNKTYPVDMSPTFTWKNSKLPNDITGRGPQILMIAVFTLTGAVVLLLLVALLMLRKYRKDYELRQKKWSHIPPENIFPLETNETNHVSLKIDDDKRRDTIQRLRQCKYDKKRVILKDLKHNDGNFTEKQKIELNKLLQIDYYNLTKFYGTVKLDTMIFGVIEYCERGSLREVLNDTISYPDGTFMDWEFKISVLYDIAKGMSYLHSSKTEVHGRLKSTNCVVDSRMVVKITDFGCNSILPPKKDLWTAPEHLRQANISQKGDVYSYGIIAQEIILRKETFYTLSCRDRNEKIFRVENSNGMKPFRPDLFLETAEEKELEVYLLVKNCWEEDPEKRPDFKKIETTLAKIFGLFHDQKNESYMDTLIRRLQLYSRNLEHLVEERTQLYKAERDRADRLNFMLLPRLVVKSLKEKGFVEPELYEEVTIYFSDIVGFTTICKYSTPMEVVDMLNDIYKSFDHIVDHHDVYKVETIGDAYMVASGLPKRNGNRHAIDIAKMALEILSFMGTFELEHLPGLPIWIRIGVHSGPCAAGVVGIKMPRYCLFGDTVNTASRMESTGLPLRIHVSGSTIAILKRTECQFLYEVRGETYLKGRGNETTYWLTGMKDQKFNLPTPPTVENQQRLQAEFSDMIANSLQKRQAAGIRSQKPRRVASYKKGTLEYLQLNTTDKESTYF

[2] = system: adenylyl cyclase or guanylyl cyclase; assay type: cell-based; conditions: read-out: typical IC50

Chain of guanylyl cyclase type C (P25092 24-1073): as above

In the case of `Nc1nc(Cl)nc2c1ncn2[C@@H]1O[C@H](CO)[C@@H](O)[C@H]1O` [2-chloroadenosine], the IC50 (guanylyl cyclase type C) is given as roughly 50 µM.
With `Cn1c2c(c(=O)n(C)c1=O)C(c1ccc(O)c(O)c1)C1C(=O)c3ccccc3C1=N2` (centres unmarked) [IIIa] the “inhibition of STa-induced activation of GC-C (FIG. 2)” value (from here on “inhibition … (FIG. 2)”) [1] was “inhibition”.
With `Cn1c2c(c(=O)n(C)c1=O)C(c1ccc(O)c(O)c1)C1=C(N2)c2ccccc2C1=O` (centres unmarked) [IIIb] the “inhibition … (FIG. 2)” value [1] was “inhibition”.
In the case of `COc1cc(C2C3=C(Nc4c2c(=O)n(C)c(=O)n4C)c2ccccc2C3=O)ccc1O` (centres unmarked) [IVb], the “inhibition … (FIG. 2)” value [1] is reported as “inhibition”.
For `CC(C)C(=O)N1C2=C(C(=O)c3ccccc32)C(c2ccc(Cl)cc2)c2c1n(C)c(=O)n(C)c2=O` (centres unmarked) [VII], the “inhibition … (FIG. 2)” value [1] was “inhibition”.
In the case of `CCCC(=O)N1C2=C(C(=O)c3ccccc32)C(c2ccc(Cl)cc2)c2c1n(C)c(=O)n(C)c2=O` (centres unmarked) [VI], the “inhibition … (FIG. 2)” value [1] is reported as “inhibition”.
With `CCOc1cc(C2C3=C(Nc4c2c(=O)n(C)c(=O)n4C)c2ccccc2C3=O)ccc1O` (centres unmarked) [Vb] the “inhibition … (FIG. 2)” value [1] was “inhibition”.
In the case of `Cn1c2c(c(=O)n(C)c1=O)C(c1cccc(Br)c1)C1C(=O)c3ccccc3C1=N2` (centres unmarked) [compound IIa, 5-(3-bromophenyl)-1,3-dimethyl-5,11-dihydro-1H-indeno[2′,1′:5,6]pyrido[2,3-d]pyrimidine-2,4,6-trione], the “inhibition … (FIG. 2)” value [1] is reported as “inhibition”, the inhibition at 50 µM ([1]; 100 nM STa, 50 μM compound) is reported as 87.1% and the “level of cyclic GMP” value ([1]; 100 nM STa, 50 μM compound, vehicle 124±10, basal 6±2) is reported as 21±4 pmol/mg protein. For the same molecule, the IC50 [2] was roughly 5 µM.
